What all share (assay): NCI tumour cell line growth inhibition, 48 h
Assay [1] deals with SK-MEL-2.
The subject of assay [2] is HT-29.
Assay [3] has as its system KM12.
The test system of assay [4] is SK-MEL-28.
The test system of assay [5] is SW-620.
In assay [6] the test system is CCRF-CEM.
Assay [7] has as its system RPMI-8226.
Assay [8] relates to NCI-H522.
In assay [9] the test system is K562.
Assay [10] relates to SF-539.
The test system of assay [11] is HCT-116.
Assay [12] deals with ACHN.
In assay [13] the test system is UO-31.
The test system of assay [14] is A549.
Assay [15] concerns HL-60.
Assay [16] concerns NCI-H226.
Assay [17] relates to HOP-62.
The test system of assay [18] is SK-MEL-5.
Assay [19] relates to OVCAR-5.
The subject of assay [20] is OVCAR-4.

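The compound was tested at five concentrations on cells cultured in 96-well plates, with a 48-hour exposure period. Abbreviation: GI50, concentration required for 50% inhibition of growth.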 Calls of active or inactive are those of the source. Cut-off read from the data, not from the text of the source: active = GI50 up to about 1.1 µM and inactive = higher.

In the case of `Cc1ccc(NC(=O)C2C(=O)N(c3ccc(C)c(C)c3)C(=O)/C2=N\NC(N)=S)cc1C` (centres undefined), the GI50 in assay [1] is > 100 µM (inactive); in assay [2] it was 78 µM (inactive); in [3] it was > 100 µM (inactive); in assay [4], > 100 µM (inactive); in [5] it was > 100 µM (inactive); in [6], 47.4 µM (inactive). Also, the GI50 in assay [7] was > 100 µM (inactive); in [8] it was 50.2 µM (inactive); in assay [9] it was 60.7 µM (inactive); in assay [10], > 100 µM (inactive); in assay [11], > 100 µM (inactive); in assay [12], > 100 µM (inactive). For the same molecule, the GI50 is 56.8 µM (inactive) in [13], > 100 µM (inactive) in assay [14], > 100 µM (inactive) in assay [15] and > 100 µM (inactive) in assay [16].

Turning to `O=C1Nc2ccc(Br)cc2/C1=N/c1ccc(Cl)cc1`, the GI50 in [2] is 12.1 µM (inactive); in [3] it was 4.55 µM (inactive); in assay [4], 23.3 µM (inactive); in assay [5], 6.56 µM (inactive); in assay [6], 11.6 µM (inactive); in assay [17] it was 21.7 µM (inactive). The GI50 in assay [7] is 4.39 µM (inactive); in assay [8] it was 7.66 µM (inactive); in assay [9], 0.586 µM (active); in assay [10], 3.58 µM (inactive); in assay [11] it was 14.3 µM (inactive); in [18] it was 4.15 µM (inactive). Moreover, the GI50 was 13.4 µM (inactive) in assay [12]; 18.2 µM (inactive) in [19]; 13.5 µM (inactive) in [13]; 25.4 µM (inactive) in assay [14]; 5.48 µM (inactive) in assay [15]; 23.4 µM (inactive) in [16].

Consider `O=P(Nc1ccc(Cl)cc1)(Oc1ccccc1)N(CCCl)CCCl` (centres undefined), for which the GI50 is 35.5 µM (inactive) in [1]; > 100 µM (inactive) in assay [20]; > 100 µM (inactive) in assay [2]; > 100 µM (inactive) in assay [3]; > 100 µM (inactive) in assay [4]; > 100 µM (inactive) in [5]. Also, the GI50 in [6], in assay [17], in assay [8], in assay [9], in assay [10] and in assay [11] was > 100 µM (inactive) in each case. Also, the GI50 in assay [18], in [12], in assay [19], in assay [13], in [14] and in [16] was > 100 µM (inactive) throughout.

In the case of `Oc1cc(-c2ccc(Cl)cc2)nc2ncccc12`, the GI50 was 31 µM (inactive) in assay [1]; 56.6 µM (inactive) in [20]; 34.9 µM (inactive) in assay [2]; 14.9 µM (inactive) in [3]; 57.1 µM (inactive) in assay [4]; 31.1 µM (inactive) in [5]. Also, the GI50 was 41.7 µM (inactive) in assay [6]; 55 µM (inactive) in [17]; 24.3 µM (inactive) in assay [7]; 40.3 µM (inactive) in [8]; 11.5 µM (inactive) in assay [9]; 45.5 µM (inactive) in assay [10]. The GI50 is 79.4 µM (inactive) in [12]; > 100 µM (inactive) in assay [19]; 33 µM (inactive) in [13]; 54.2 µM (inactive) in assay [14]; 44.6 µM (inactive) in assay [16].

(Values after ChEMBL document CHEMBL1201862, “PubChem BioAssay data set” (2004).)
